Test results as given in patent US9611276B2, “Imidazo bicyclic iminium compounds as antitumor agents” (THE BOARD OF TRUSTEES OF THE LELAND STANFORD JUNIOR …, priority 2012, dated 2017).

What was measured:
Format in all cases: cell-based
Wnt pathway activity = test: Wnt-LIGHT cell assay with Wnt3a-conditioned medium
Experimental: Wnt-LIGHT cells [see Hyman et al. Proc Natl Acad Sci USA. 2009; 106(33):14132-7], a L-cell-based cell line containing a stably integrated TCF/LCF-dependent firefly luciferase reporter (SuperTopFlash), constitutive Renilla luciferase reporter (pRLSV40, Promega), and geneticin resistance vector (pcDNA3, Invitrogen), were cultured in DMEM (Invitrogen, 11965) containing 10% (v/v) fetal bovine serum (Invitrogen, No. 26140), 400 μg/mL G418 (Invitrogen, 11811) and 1× PenStrep (Gibco, 15140).
(§1) All test compounds were dissolved in DMSO at 50 mM, serially diluted by 1:3, 1:4 or 1:5 in a 96-well translucent microplate (Greiner bio-one, 650201) and stored at −20° C. These serial dilutions were added to assay media freshly with final DMSO concentration of 0.2% (v/v).
The Wnt-LIGHT cell assay provides a measure of Wnt pathway activity. Wnt3a-conditioned medium was prepared by culturing Wnt3a-expressing L cells obtained from ATCC in DMEM (Invitrogen, 11965) containing 10% (v/v) fetal bovine serum (Invitrogen, No. 26140) and 1× PenStrep (Gibco, 15140). […] The cells were lysed with passive lysis buffer (50 μL/well), and 10 μL of the obtained lysate were analyzed for firefly and Renilla luciferase activities using Dual-Luciferase Reporter Assay System (Promega, E1960) (50 μL/well of each reagent) on a microplate luminometer (Veritas). Biological triplicates were analyzed for each test compounds.

Hh pathway activity = test: Shh-LIGHT2 cell assay with ShhN-conditioned medium
Experimental: Shh-LIGHT2 cells [see Taipale et al. Nature. 2000; 406(6799):1005-9], an NIH-3T3-based cell line containing a stably integrated Gli-responsive firefly luciferase reporter (8XGliBS-FL) and constitutive Renilla luciferase reporter (pRLTK, Promega), were cultured in DMEM (Invitrogen, 11965) containing 10% (v/v) calf serum [the American Type Culture Collection (ATCC), 30-2030], 150 μg/mL zeocin (Invitrogen, R250-01), 400 μg/mL G418 (Invitrogen, 11811), 1 mM sodium pyruvate (Invitrogen, 11360) and 1× PenStrep.
as §1
The Shh-LIGHT2 cell assay provides a measure of Hh pathway activity. ShhN-conditioned medium was prepared by culturing a Shh-N-producing HEK 293 cell line [see Chen et al. Proc Natl Acad Sci USA. […] The cells were lysed with passive lysis buffer (50 μL/well), and 10 μL of the obtained lysate were analyzed for firefly and Renilla luciferase activities using Dual-Luciferase Reporter Assay System (Promega, E1960) (50 μL/well of each reagent) on a microplate luminometer (Veritas). Biological triplicates were analyzed for each test compounds.

[1] = test system: endogenous Hh target gene expression (Gli1 mRNA); test: Gli1 mRNA levels in NIH-3T3 cells with ShhN
Experimental: NIH-3T3 cells were obtained from ATCC and cultured in DMEM (Invitrogen, 11965) containing 10% (v/v) calf serum (ATCC, 30-2030), 1 mM sodium pyruvate (Invitrogen, 11360) and 1× PenStrep (Gibco, 15140).
as §1
Quantification of Gli1 mRNA levels in NIH-3T3 cells provides a measure of endogenous Hh target gene expression. NIH 3T3 cells were seeded into 96-well plates (36,000 cells/well), cultured to confluency for 24 hrs and then incubated with test compounds in DMEM (Invitrogen, 11965) containing 0.5% (v/v) calf serum (ATCC, 30-2030), 1 mM sodium pyruvate (Invitrogen, 11360), 1× PenStrep (Gibco, 15140) and 10% (v/v) ShhN-conditioned medium for 24 hrs. The cells were lysed and the lysate was used to prepare cDNA using a Cells-to-CT kit (Ambion) according to the manufacturer's protocols. The cDNA was then quantified with Gli1 and GAPDH Taqman probes (Mm00494645m1 and Mm99999914g1, Applied Biosystems) on a Roche Lightcycler 480, using the 2nd derivative/maximum method to obtain Ct values. Biological triplicates were analyzed for each test compounds.

Question: With `CCOc1ccc(-[n+]2cc(-c3ccc(Br)cc3)n3c2CCCCC3)cc1` [Compound A-1] as the compound, how does the “Inhibition of Wnt signaling” value (Wnt pathway activity) read?
Answer: Its value is “did not inhibit Wnt signaling”.

Question: And the “IC50, firefly luciferase” value (Wnt pathway activity; Wnt-LIGHT w/ Wnt3a)?
Answer: Its value is “No inhibition”.

Question: And the “Inhibition of Hh pathway activity” value (Hh pathway activity; Shh-LIGHT2 cells stimulated with ShhN)?
Answer: Its value is “inhibits Hh pathway activity”.

Question: What about the IC50 (Hh pathway activity; Shh-LIGHT2 w/ ShhN, read-out: IC50, firefly luciferase) of the same compound?
Answer: Its IC50 is 6.6 µM.

Question: And the “ShhN-dependent expression of endogenous target genes (Gli1)” value [1]?
Answer: Its value is “inhibited”.

Question: And the IC50 ([1]; Mus musculus, NIH3T3, NIH-3T3 w/ ShhN)?
Answer: The IC50 was 5 µM.
